Assay results published in patent publication US20140051650A1, “VAGINAL COMPOSITIONS BASED ON ALKYL POLYGLUCOSIDES” (EFFIK S.A., priority 2011, published 2014).
In brackets after ≈: the same amount, converted by molar mass. Read-outs that look alike come from different tables or passages of the source.

Experiments:
Streptococcus agalactiae [1] = assay: Minimum Bactericidal Concentration (MBC) in liquid medium against Streptococcus agalactiae; assay type: cell-based
Description: Three Streptococcus agalactiae strains isolated from vaginal-rectal buffers during the prenatal check-ups were used for the assay. The strains were named “strain 2”, “strain 10” and “strain 11”. Isolation was carried out on a blood agar medium and identification was obtained through biochemical tests of the API 20 Strep (Bio-Mérieux) system and through the identification of the Lancefield group.
The experiments were also carried out on a Streptococcus agalactiae ATCC 12386 strain.
“Brain Heart Infusion broth” (BHIb, Becton Dickinson) medium was used for the Streptococcus agalactiae culture, “Mueller-Hinton broth” (M-Hb) medium after adding 2% “laked” horse blood and the “Mueller-Hinton agar” (M-Ha) medium with addition of defibrinated horse blood at 5% (Oxoid) were used for the antimicrobial activity assays.
The Streptococcus agalactiae strains were cultured in BHIb broth for 24 hours at 37° C. Immediately before the assay, the bacterial suspensions were diluted up to obtaining turbidity equivalent to 0.5 McFarland standard. 50 μl of a further 1:100 dilution in broth+blood at 2% were distributed in the wells of the microtitre plates. The presumed titre of the inoculum carried out through this procedure is of about 5×10^4 ufc (units forming colony)/well.
The bacterial cultures were also diluted serially according to a value 10 (up to a dilution value equivalent to 10^−7) and an aliquot of 0.1 ml of each dilution was double streaked on M-Ha +blood 5% for determining the actual titre to be used, subsequently, to determine the MBC (Minimum Bactericidal Concentration).
The assay was carried out in 96-well microtitre plates. 50 μl of M-Hb at normal concentration were deposited in the first well of each of the 5 rows. Starting from the first well of each row, […] volumes were transferred from each well to the subsequent one 10 times, thus obtaining a series of dilutions after doubling. The 12th well of each row was kept substance-free as a positive control of the bacterial growth.
Subsequently, 50 μl of bacterial inoculum of M-Hb+double concentration blood (4%) were deposited in all wells of the plate, except for the 11th of each row. Only M-Hb+double concentration blood but bacteria-free, were deposited in the 11th well, with the aim of providing negative control for each row. The described scheme was used for the assay of each of the three Streptococcus agalactiae strains.
(§1) Immediately after determining the value of the MIC for each substance, a volume equivalent to 50 μl was taken from each well and streaked on the surface of plates containing the solid medium. The plates were subsequently incubated at the conditions indicated for each microbial strain. After incubation at 37° C. for 24 hours, the number of colonies grown on the medium surface was counted thus determining the number of bacteria that survived after 24 hours of contact with the substance at the concentration present in the well. The MBC value defined as the lowest concentration of each substance capable of reducing the bacterial load by 99.9% in the previously defined assay conditions was determined through comparison between the number of bacteria that survived in each well and that of the bacterial inoculum deposited initially.

[2] = system: Neisseria gonorrhoeae ATCC 43069; assay: MIC against Neisseria gonorrhoeae; assay type: cell-based; conditions: substance alone
Description: (§2) The Gardnerella vaginalis ATCC 14018 strain, the Neisseria gonorrhoeae ATCC 43069 strain and the Candida albicans ATCC 10231 strain were also used for the experiment.
(§3) The other assayed microbial strains were cultured in the liquid media and in the incubation conditions specified in table A, following the operating procedure described above.
(§4) The assay was carried out in 96-well microtitre plates. 50 μl of substance solution at the “mother” concentration alongside 50 μl of liquid medium at double concentration were deposited in the first well of each of the 8 rows while 50 μl of liquid medium at normal concentration were deposited in the remaining 11 wells. Starting from the first well of each row, 50 μl volumes were transferred from each well to the subsequent one 10 times, thus obtaining a series of 11 dilutions after doubling. The 12th well of each row was kept substance-free as a function of positive control of the bacterial growth.
(§5) Subsequently, 50 μl of diluted bacterial inoculum as specified previously were deposited in all wells of the plate, except for the 11th of each row. Only the liquid medium at single concentration but bacteria-free, was deposited in the 11th well, with the aim of providing negative control for each row. The described scheme was used for the assay with each of the assayed microbial strains. […]

[3] = system: Neisseria gonorrhoeae ATCC 43069; assay: MBC against Neisseria gonorrhoeae; assay type: cell-based; conditions: substance alone
Description: as §1, with “The Gardnerella vaginalis ATCC 14018 strain, the Neisseria gonorrhoeae ATCC 43069 strain and the Candida albicans ATCC 10231 strain were also used for the experiment. [table] The other assayed microbial strains were cultured in the liquid media and in the incubation conditions specified in table A, following the operating procedure described above. Immediately” for “Immediately”

[4] = "Mother" concentration: highest concentration at which complete solubilisation could be obtained; assay type: physicochemical; conditions: propylene glycol 30% in water, aqueous with cosolvent or surfactant or cyclodextrin; solvent prop glycol 30% in water; read-out: "mother" conc. (highest concentration at which complete solubilisation could be obtained)
Description: The substances to be subjected to the analysis were prepared for the assay through dilution and sterilisation as described hereinafter.
The concentration of the substances referred to as “mother” represents the highest concentration at which complete solubilisation could be obtained and it is […] than the highest concentration assayed in the test.

Streptococcus agalactiae [5] = assay: Minimum Inhibitory Concentration (MIC) on agarised medium against Streptococcus agalactiae; assay type: cell-based
Description: The assay was carried out on an M-Ha medium+blood at 5%. The medium was prepared at a concentration 33% higher with respect to the final one used in the test corresponding to the one indicated by the supplier. After sterilisation in autoclave, the medium was balanced at the temperature of 48° C. and added with horse blood at the concentration of 6.6% (33% higher than the final concentration of the assay). 15 ml aliquots of M-Ha medium+blood were transferred into 50 ml falcon test tubes maintained at 48° C., added with 5 ml of the dilutions of the substances to be assayed, mixed, poured into Petri dishes and left to solidify. Twenty-five bacterial inoculums, each with approximate volume of about 5 μl and containing about 10^5 ufc, were deposited on the surface of the M-Ha medium+blood of each plate. After incubation at 37° C. for 18 hours the minimum inhibitory concentration (MIC) defined as the minimum concentration of substance capable of inhibiting a bacterial growth noticeable to the naked eye at the area of deposition of the inoculums was read.
In the test with Streptococcus agalactiae the minimum inhibitory concentrations in the assay in liquid medium, regarding which only the bactericide minimum concentration values are indicated, could not be determined with sufficient reliability due to the turbidity of the solutions containing the substances. “Determination of the Minimum Inhibitory Concentration on Agarised Medium” was carried out to obtain the MIC values.

[6] = system: Candida albicans ATCC 10231; assay: MIC against Candida albicans; assay type: cell-based; conditions: substance alone
Description: as §2, §3, §4
Subsequently, 50 μl of diluted bacterial inoculum as specified previously were deposited in all wells of the plate, except for the 11th of each row. Only the liquid medium at single concentration but bacteria-free, was deposited in the 11th well, with the aim of providing negative control for each row. The described scheme was used for the assay with each of the assayed microbial strains.
After incubation at the conditions indicated regarding each micro-organism, the microtitre plates were examined to verify, in each well, the presence or absence of bacterial growth. The minimum inhibitory concentration is defined as the lowest concentration of the substance still capable of inhibiting bacterial growth i.e. preventing the liquid from becoming turbid within the well.

[7] = system: Candida albicans ATCC 10231; assay: MBC against Candida albicans; assay type: cell-based; conditions: substance alone
Description: as §1, with “The Gardnerella vaginalis ATCC 14018 strain, the Neisseria gonorrhoeae ATCC 43069 strain and the Candida albicans ATCC 10231 strain were also used for the experiment. [table] The other assayed microbial strains were cultured in the liquid media and in the incubation conditions specified in table A, following the operating procedure described above. Immediately” for “Immediately”

[8] = system: Gardnerella vaginalis ATCC 14018; assay: MIC against Gardnerella vaginalis; assay type: cell-based; conditions: substance alone
Description: as §2, §3, §4, §5

[9] = system: Gardnerella vaginalis ATCC 14018; assay: MBC against Gardnerella vaginalis; assay type: cell-based; conditions: substance alone
Description: as §1, with “The Gardnerella vaginalis ATCC 14018 strain, the Neisseria gonorrhoeae ATCC 43069 strain and the Candida albicans ATCC 10231 strain were also used for the experiment. [table] The other assayed microbial strains were cultured in the liquid media and in the incubation conditions specified in table A, following the operating procedure described above. Immediately” for “Immediately”

[10] = ATCC 12386 in M-Hb blood 2%, substance alone
[11] = Strain 2 in M-Hb blood 2%, substance alone
[12] = Strain 10 in M-Hb blood 2%, substance alone
[13] = Strain 11 in M-Hb blood 2%, substance alone

Compound	MBC (Streptococcus agalactiae [1]; [10])	MBC (Streptococcus agalactiae [1]; [11])	MBC (Streptococcus agalactiae [1]; [12])	MBC (Streptococcus agalactiae [1]; [13])	MIC (minimum inhibiting concentration) (Streptococcus agalactiae [5]; strain 2, substance alone)	MIC (minimum inhibiting concentration) (Streptococcus agalactiae [5]; strain 5, substance alone)	MIC (minimum inhibiting concentration) (Streptococcus agalactiae [5]; strain 6, substance alone)	MIC (minimum inhibiting concentration) (Streptococcus agalactiae [5]; strain 7, substance alone)	MIC (minimum inhibiting concentration) (Streptococcus agalactiae [5]; strain 8, substance alone)	MIC (minimum inhibiting concentration) (Streptococcus agalactiae [5]; strain 9, substance alone)	MIC (minimum inhibiting concentration) (Streptococcus agalactiae [5]; strain 10, substance alone)	MIC (minimum inhibiting concentration) (Streptococcus agalactiae [5]; strain 11, substance alone)	MIC (minimum inhibiting concentration) (Streptococcus agalactiae [5]; strain 12, substance alone)	MIC (minimum inhibiting concentration) (Streptococcus agalactiae [5]; strain 13, substance alone)	MIC (minimum inhibiting concentration) (Streptococcus agalactiae [5]; strain 14, substance alone)	MIC (minimum inhibiting concentration) (Streptococcus agalactiae [5]; strain 15, substance alone)	MIC (minimum inhibiting concentration) (Streptococcus agalactiae [5]; strain 16, substance alone)	MIC (minimum inhibiting concentration) (Streptococcus agalactiae [5]; strain 17, substance alone)	MIC (minimum inhibiting concentration) (Streptococcus agalactiae [5]; strain 18, substance alone)	MIC (minimum inhibiting concentration) (Streptococcus agalactiae [5]; strain 19, substance alone)	also measured
CC1(C)S[C@@H]2[C@H](NC(=O)[C@H](N)c3ccccc3)C(=O)N2[C@H]1C(=O)O [Ampicillin, reference compound]	–	–	–	–	–	–	–	–	–	–	–	–	–	–	–	–	–	–	–	–	MBC (Streptococcus agalactiae [1]; Streptococcus agalactiae, ATCC12386, ATCC 12386 in M-Hb blood 2%, reference antibiotic, read-out: MBC): 0.5 µg/mL (≈ 1.43 µM); MBC (Streptococcus agalactiae [1]; Streptococcus agalactiae, Strain 2 in M-Hb blood 2%, reference antibiotic, read-out: MBC): < 0.06 µg/mL; MBC (Streptococcus agalactiae [1]; Streptococcus agalactiae, Strain 10 in M-Hb blood 2%, reference antibiotic, read-out: MBC): 1 µg/mL (≈ 2.86 µM); MBC (Streptococcus agalactiae [1]; Streptococcus agalactiae, Strain 11 in M-Hb blood 2%, reference antibiotic, read-out: MBC): < 0.06 µg/mL; concentrations required to perform the bactericidal action, times higher in strain 10 than against strain 2 and 11 (Streptococcus agalactiae [1]; strain 10 versus strains 2 and 11): at least 15 times; MIC [2]: ≦0.000012%; MBC [3]: ≦0.000012%
CCCCCCCCCCCC(=O)O [F, lauric acid]	0.25	≧0.25	≧0.25	0.25	0.25%	0.25%	0.25%	0.25%	0.25%	0.25%	0.25%	0.25%	0.25%	0.25%	0.25%	0.25%	0.25%	0.25%	0.25%	0.25%	solubility [4]: 10.1 mg/mL (≈ 50300 µM); MIC (minimum inhibiting concentration) (Streptococcus agalactiae [5]; strain 20, substance alone): 0.25%; MIC (minimum inhibiting concentration) (Streptococcus agalactiae [5]; strain 21, substance alone): 0.25%; MIC (minimum inhibiting concentration) (Streptococcus agalactiae [5]; strain 22, substance alone): 0.25%; MIC (minimum inhibiting concentration) (Streptococcus agalactiae [5]; strain 23, substance alone): 0.25%; MIC (minimum inhibiting concentration) (Streptococcus agalactiae [5]; strain 24, substance alone): 0.25%; MIC (minimum inhibiting concentration) (Streptococcus agalactiae [5]; strain 25, substance alone): 0.25%; MIC (minimum inhibiting concentration) (Streptococcus agalactiae [5]; strain 12386, substance alone): 0.25%; MIC (minimum inhibiting concentration) (Streptococcus agalactiae [5]; strain 12403, substance alone): 0.25%; MIC (minimum inhibiting concentration) (Streptococcus agalactiae [5]; strain 27956, substance alone): 0.25%
CCCCCCCCCCCC(=O)OCC(O)CO (stereo not drawn) [G, monolaurate]	0.107	0.107	0.428	0.107	0.11%	0.11%	0.11%	0.11%	0.22%	0.11%	0.22%	0.11%	0.11%	0.11%	0.11%	0.11%	0.11%	0.11%	0.22%	0.11%	MIC (minimum inhibiting concentration) (Streptococcus agalactiae [5]; strain 20, substance alone): 0.11%; MIC (minimum inhibiting concentration) (Streptococcus agalactiae [5]; strain 21, substance alone): 0.11%; MIC (minimum inhibiting concentration) (Streptococcus agalactiae [5]; strain 22, substance alone): 0.11%; MIC (minimum inhibiting concentration) (Streptococcus agalactiae [5]; strain 23, substance alone): 0.11%; MIC (minimum inhibiting concentration) (Streptococcus agalactiae [5]; strain 24, substance alone): 0.11%; MIC (minimum inhibiting concentration) (Streptococcus agalactiae [5]; strain 25, substance alone): 0.11%; MIC (minimum inhibiting concentration) (Streptococcus agalactiae [5]; strain 12386, substance alone): 0.11%; MIC (minimum inhibiting concentration) (Streptococcus agalactiae [5]; strain 12403, substance alone): 0.11%; MIC (minimum inhibiting concentration) (Streptococcus agalactiae [5]; strain 27956, substance alone): 0.11%
Clc1ccc(COC(Cn2ccnc2)c2ccc(Cl)cc2Cl)cc1 (stereo not drawn) [econazole]	–	–	–	–	–	–	–	–	–	–	–	–	–	–	–	–	–	–	–	–	MIC [6]: 0.000025%; MBC [7]: 0.0008%
Cc1ncc([N+](=O)[O-])n1CCO [metronidazole, reference compound]	–	–	–	–	–	–	–	–	–	–	–	–	–	–	–	–	–	–	–	–	MIC [8]: 0.0004%; MBC [9]: 0.0008%
Clc1ccc(COC(Cn2ccnc2)c2ccc(Cl)cc2Cl)c(Cl)c1 (stereo not drawn) [miconazole]	–	–	–	–	–	–	–	–	–	–	–	–	–	–	–	–	–	–	–	–	MIC [6]: 0.000012%; MBC [7]: 0.0008%
